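Interpolation was linear, between the two tested concentrations surrounding the appropriate level; five concentrations were tested over 48 hours in 96-well plates. The concentration for full growth arrest is given as TGI.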
Assays:
Assay in all cases: NCI anticancer screen, dose series, 48 h
UO-31 renal = tested on: UO-31 renal
TK-10 renal = tested on: TK-10 renal
U251 CNS = tested on: U251 CNS
CCRF-CEM leukemia = tested on: CCRF-CEM leukemia
MDA-MB-435 = tested on: MDA-MB-435
HOP-62 NSCLC = tested on: HOP-62 NSCLC
HT29 colon = tested on: HT29 colon
NCI-H460 lung = tested on: NCI-H460 lung
PC-3 prostate = tested on: PC-3 prostate
COLO 205 colon = tested on: COLO 205 colon
RPMI-8226 leukemia = tested on: RPMI-8226 leukemia
SK-MEL-2 melanoma = tested on: SK-MEL-2 melanoma
BT-549 breast = tested on: BT-549 breast
ACHN renal = tested on: ACHN renal
MDA-MB-231 breast = tested on: MDA-MB-231 breast
SK-MEL-28 melanoma = tested on: SK-MEL-28 melanoma
SF-539 CNS = tested on: SF-539 CNS

SMILES | TGI (UO-31 renal) [µM] | TGI (TK-10 renal) [µM] | TGI (U251 CNS) [µM] | TGI (CCRF-CEM leukemia) [µM] | TGI (MDA-MB-435) [µM] | TGI (HOP-62 NSCLC) [µM] | TGI (HT29 colon) [µM] | TGI (NCI-H460 lung) [µM] | TGI (PC-3 prostate) [µM] | TGI (COLO 205 colon) [µM] | TGI (RPMI-8226 leukemia) [µM] | TGI (SK-MEL-2 melanoma) [µM] | TGI (BT-549 breast) [µM] | TGI (ACHN renal) [µM] | TGI (MDA-MB-231 breast) [µM] | TGI (SK-MEL-28 melanoma) [µM] | TGI (SF-539 CNS) [µM]
Cc1n[n+](CC(=O)c2ccccc2)c2sc(N)nn12 | > 100 | > 100 | > 100 | > 100 | > 100 | > 100 | > 100 | > 100 | > 100 | > 100 | > 100 | > 100 | > 100 | > 100 | > 100 | > 100 | –
CCOC(=O)N1CC2(C)C=CC1C(C(=O)OC)C2 (stereo unspecified) | > 100 | > 100 | > 100 | > 100 | > 100 | > 100 | > 100 | > 100 | > 100 | > 100 | > 100 | > 100 | > 100 | > 100 | > 100 | > 100 | –
CC(C)/C(Cl)=N/OC(=O)Nc1cccc(C(F)(F)F)c1 | 22.9 | 12.7 | 31.3 | 13.8 | 26.9 | 32.1 | 10.6 | 34.3 | 29.8 | 3.46 | 3.69 | 32.5 | 15.6 | 3.06 | 17 | 10.9 | –
O=C(Nc1cccc(NC(=O)C(=O)C2CCC3=C(Sc4ccccc4N3)C2=O)n1)C(=O)C1CCC2=C(Sc3ccccc3N2)C1=O (stereo unspecified) | > 100 | – | > 100 | > 100 | > 100 | – | > 100 | > 100 | > 100 | > 100 | > 100 | > 100 | > 100 | > 100 | > 100 | > 100 | 55.1
COc1ccc(C2=Nn3c(nc4sc(C)c(C)c4c3=O)SC2)cc1 | > 100 | > 100 | > 100 | > 100 | > 100 | > 100 | > 100 | > 100 | > 100 | > 100 | > 100 | – | > 100 | > 100 | > 100 | > 100 | > 100
CC1(C)C=Cc2c(cc3oc4ccc5c(c4c(=O)c3c2O)C=CC(C)(C)O5)O1 | > 100 | > 100 | > 100 | > 100 | > 100 | > 100 | > 100 | – | > 100 | > 100 | > 100 | > 100 | > 100 | > 100 | > 100 | > 100 | > 100
COc1cc(C2SCC(=O)N2Cc2ccccc2)cc(OC)c1OC (stereo unspecified) | > 100 | > 100 | > 100 | > 100 | > 100 | – | > 100 | > 100 | > 100 | > 100 | > 100 | > 100 | > 100 | > 100 | > 100 | > 100 | > 100
CC1=[N+]([O-])C(C)(C)N(N=O)C1(C)C | > 10 | > 10 | > 10 | > 10 | > 10 | > 10 | > 10 | > 10 | > 10 | > 10 | > 10 | > 10 | > 10 | > 10 | > 10 | – | –
NC(=O)NC(=O)CCC(NS(=O)(=O)c1ccccc1)C(=O)NC(N)=O (stereo unspecified) | > 100 | > 100 | > 100 | > 100 | > 100 | > 100 | > 100 | > 100 | > 100 | > 100 | – | > 100 | > 100 | > 100 | > 100 | > 100 | > 100
O=C1c2sc(-c3ccc(F)cc3)cc2-n2cccc21 | > 100 | 50.7 | 40.2 | > 100 | > 100 | 37.3 | > 100 | > 100 | > 100 | > 100 | > 100 | > 100 | > 100 | > 100 | 86.3 | > 100 | –
Cc1ccccc1N=CN(C)C | > 100 | > 100 | > 100 | > 100 | > 100 | > 100 | > 100 | – | > 100 | > 100 | 58.2 | > 100 | > 100 | > 100 | > 100 | > 100 | > 100
CC(=O)OCC1OC(n2c(C#N)cc(=O)[nH]c2=O)CC1OC(C)=O (stereo unspecified) | > 100 | > 100 | > 100 | > 100 | > 100 | > 100 | > 100 | > 100 | > 100 | > 100 | – | > 100 | > 100 | > 100 | > 100 | > 100 | > 100
O=c1[nH]c(=O)n(C2OC(CO)C(O)C2O)c2ncc(-c3ccc(-c4ccccc4)cc3)nc12 (stereo unspecified) | > 20 | > 20 | > 20 | > 20 | > 20 | > 20 | > 20 | > 20 | > 20 | > 20 | > 20 | > 20 | > 20 | > 20 | > 20 | – | > 20
C1=Nc2ccc(cc2)N=Cc2ccccc2OCc2cccc(n2)COc2ccccc21 | > 100 | > 100 | > 100 | > 100 | > 100 | > 100 | > 100 | > 100 | > 100 | > 100 | – | > 100 | > 100 | > 100 | > 100 | – | 81.6

— PubChem BioAssay (NCI)
